Experimental findings from BindingDB's records for doi:10.7270/Q2T72FVT (University of Pittsburgh, 2007) are described below.

The experiment deals with Serine/threonine-protein kinase PLK1 (Homo sapiens, UniProt P53350). The experiment is described as follows: potency against Plk1 PBD phosphopeptide binding – biochemical, fluorescence polarization, dose response (AID 877).
Serine/threonine-protein kinase PLK1, sequence (P53350 whole entry): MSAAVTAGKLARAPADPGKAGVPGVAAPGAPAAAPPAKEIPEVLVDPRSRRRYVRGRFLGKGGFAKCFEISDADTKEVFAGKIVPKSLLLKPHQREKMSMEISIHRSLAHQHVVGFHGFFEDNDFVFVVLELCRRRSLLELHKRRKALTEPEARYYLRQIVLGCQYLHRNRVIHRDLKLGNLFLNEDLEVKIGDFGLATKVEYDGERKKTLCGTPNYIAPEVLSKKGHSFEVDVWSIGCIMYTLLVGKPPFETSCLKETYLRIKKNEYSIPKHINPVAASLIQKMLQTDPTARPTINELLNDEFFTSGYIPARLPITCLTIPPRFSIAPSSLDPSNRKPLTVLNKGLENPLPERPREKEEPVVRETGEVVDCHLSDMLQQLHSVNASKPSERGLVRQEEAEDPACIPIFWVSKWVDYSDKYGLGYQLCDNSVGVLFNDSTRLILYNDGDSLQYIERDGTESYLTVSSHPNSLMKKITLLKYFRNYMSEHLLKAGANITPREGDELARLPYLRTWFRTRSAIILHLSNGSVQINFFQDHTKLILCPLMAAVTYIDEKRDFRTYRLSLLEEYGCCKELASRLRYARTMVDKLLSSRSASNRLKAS
In turn, `O=C1C(=O)c2ccccc2-c2ccccc21` came in with an IC50 of 10.1 µM.
For `Cc1ccc(-n2c(O)c(C=NCCN3CCOCC3)c(=O)[nH]c2=O)cc1` the value was greater than 50 µM; for `CCOC(=O)c1ccc(NC(=O)c2c(O)[nH]c(=O)[nH]c2=O)cc1`, 2.28 µM; for `O=c1[nH]cc(COCc2ccccc2)c(=O)[nH]1`, greater than 50 µM.
`Cc1ccc(NC2=CC(=NS(=O)(=O)c3cccs3)c3ccccc3C2=O)c(C)c1` returned a half-inhibitory concentration (IC50) greater than 50 µM.
In the case of `CN1C(=O)N(C)C(=O)C2(Sc3ccccc3C2=O)C1=O` [1',3'-dimethylspiro[benzothiophene-2,5'-hexahydropyrimidine]-2',3,4',6'-diquinone], the IC50 was greater than 50 µM.
The same measure for `Cc1ccc2c(c1)CC1(CN2C)C(=O)NC(=O)N(c2ccccc2C)C1=O` (configuration not stated) [1',6'-dimethyl-1-(2-methylphenyl)spiro[1,3-diazinane-5,3'-2,4-dihydroquinoline]-2,4,6-trione]: greater than 50 µM; for `Cc1nc2c(=O)n(C)c(=O)nc-2n(C)n1` [1,3,6-Trimethyl-1H-pyrimido[5,4-e][1,2,4]triazine-5,7-dione]: 14.6 µM.
In turn, `Cc1ccc(CNC(=O)c2cc3c(=O)n(C)c4ccccc4c3n2C)cc1` [1,5-dimethyl-N-[(4-methylphenyl)methyl]-4-oxidanylidene-pyrrolo[3,2-c]quinoline-2-carboxamide] yielded an IC50 greater than 50 µM.
Regarding `Cn1c(=O)c(NCCO)c2c3c(cccc31)C(=O)c1ccccc1-2` [1-(2-Hydroxy-ethylamino)-3-methyl-3H-naphtho[1,2,3-de]quinoline-2,7-dione], the half-maximal inhibitory concentration (IC50) was determined as 1.81 µM.
The molecule `COc1cc(S(=O)(=O)N2CCCCCC2)ccc1-n1cnnn1` [1-(3-Methoxy-4-tetrazol-1-yl-benzenesulfonyl)-azepane] gave an IC50 greater than 50 µM.
As for `COc1ccc(CC2NCCC3(O)CCCCC23)cc1` (configuration not stated) [1-(4-Methoxy-benzyl)-octahydro-isoquinolin-4a-ol], the half-maximal inhibitory concentration (IC50) is greater than 50 µM.
The same measure for `O=C1CN(c2ccc(Br)cc2)C(=O)N1CC(=O)N1CCCc2ccccc21` [1-(4-bromophenyl)-3-[2-(3,4-dihydro-1(2H)-quinolinyl)-2-oxoethyl]-2,4-imidazolidinedione]: greater than 50 µM.
`CCCSc1nc(N2CCOCC2)c2c(c1C#N)CCCC2` [1-(4-morpholinyl)-3-(propylthio)-5,6,7,8-tetrahydroisoquinoline-4-carbonitrile] had an IC50 greater than 50 µM.
For `CS(=O)(=O)N1CCN(C/C=C/c2ccccc2)CC1` [1-(methylsulfonyl)-4-(3-phenyl-2-propen-1-yl)piperazine] the value was greater than 50 µM.
The same measure for `Fc1ccc(Cn2nnnc2CN2CCN(C3CCCC3)CC2)cc1` [1-Cyclopentyl-4-[1-(4-fluoro-benzyl)-1H-tetrazol-5-ylmethyl]-piperazine]: greater than 50 µM; for `NC(=O)C1(N2CCCCC2)CCN(C(=O)NC2CCCCC2)CC1` [1-N-cyclohexyl-4-piperidin-1-ylpiperidine-1,4-dicarboxamide]: greater than 50 µM.
For `CC(=O)N1CCc2cc(Br)cc(S(=O)(=O)NCc3ccccn3)c21` [1-acetyl-5-bromo-N-(2-pyridinylmethyl)-2,3-dihydroindole-7-sulfonamide] the value was greater than 50 µM; for `CCOC(=O)c1cc2n(c1N)-c1ccccc1C2=O` [1-amino-4-keto-pyrrol[1,2-a]indole-2-carboxylic acid ethyl ester], 19.9 µM; for `O=C(c1ccc(-n2cnnn2)cc1)N1CCCCC1` [1-piperidinyl-[4-(1-tetrazolyl)phenyl]methanone], greater than 50 µM.
On to `Cn1c(-c2cc3ccc(OC(=O)C(C)(C)C)cc3oc2=O)nc2ccccc21` [2,2-Dimethyl-propionic acid 3-(1-methyl-1H-benzoimidazol-2-yl)-2-oxo-2H-chromen-7-yl ester], for which the half-inhibitory concentration (IC50) is greater than 50 µM.
The molecule `O=C(Nc1cccn(Cc2c(Cl)cccc2Cl)c1=O)c1c(Cl)cccc1Cl` [2,6-dichloro-N-[1-(2,6-dichlorobenzyl)-2-keto-3-pyridyl]benzamide] registered an IC50 greater than 50 µM.
The same measure for `Nc1cc(-c2ccc(Br)cc2)nn1S(=O)(=O)c1cccc2nsnc12` [2-(2,1,3-benzothiadiazol-4-ylsulfonyl)-5-(4-bromophenyl)-3-pyrazolamine]: greater than 50 µM; for `O=C(O)C1CCCCC1C(=O)Nc1ccc2c(c1)OCCO2` (configuration not stated) [2-(2,3-dihydro-1,4-benzodioxin-6-ylcarbamoyl)cyclohexane-1-carboxylic acid]: greater than 50 µM.
In turn, `COc1ccccc1C1SCCN1S(=O)(=O)c1cccc(C(F)(F)F)c1` (configuration not stated) [2-(2-Methoxy-phenyl)-3-(3-trifluoromethyl-benzenesulfonyl)-thiazolidine] came in with an IC50 greater than 50 µM.
The molecule `NC(=O)Cn1c(S(=O)(=O)Cc2ccccc2)nc2ccccc21` [2-(2-benzylsulfonylbenzimidazol-1-yl)acetamide] yielded a concentration for half-maximal inhibition (IC50) greater than 50 µM.
`COc1ccc(Nc2oc(-c3ccccc3Cl)nc2C#N)cc1` [2-(2-chlorophenyl)-5-(4-methoxyanilino)-1,3-oxazole-4-carbonitrile] showed an IC50 greater than 50 µM.
The same measure for `Cc1nn(C(C)C(=O)N2CCCCC2)c(=O)c2c1sc1ccccc12` (configuration not stated) [2-(2-keto-1-methyl-2-piperidino-ethyl)-4-methyl-benzothiopheno[2,3-d]pyridazin-1-one]: greater than 50 µM.
The same measure for `O=C(Cc1ccc(Cl)cc1)NCCN1CCCC1` [2-(4-Chloro-phenyl)-N-(2-pyrrolidin-1-yl-ethyl)-acetamide]: greater than 50 µM.
Molecule `CNC(=O)CC(C(=O)O)c1ccc(OCC(C)C)cc1` (configuration not stated) [2-(4-Isobutoxy-phenyl)-N-methyl-succinamic acid] showed a 50% inhibitory concentration (IC50) greater than 50 µM.
`Cc1ccc(OCC(=O)Nc2ccc(N3CCOCC3)cc2)cc1` [2-(4-methylphenoxy)-N-(4-morpholin-4-ylphenyl)acetamide] had an IC50 greater than 50 µM.
The same measure for `C=CCSc1nccc(-c2cc(Cl)sc2Cl)n1` [2-(allylsulfanyl)-4-(2,5-dichloro-3-thienyl)pyrimidine]: greater than 50 µM.
Regarding `CCNC(=O)NC(=O)C(C)OC(=O)c1cccnc1SC` (configuration not stated) [2-(methylthio)-3-pyridinecarboxylic acid [1-(ethylcarbamoylamino)-1-oxopropan-2-yl] ester], the half-maximal inhibitory concentration (IC50) was greater than 50 µM.
The same measure for `Nc1ccc2c(c1)C(=O)C(=O)c1ccccc1-2` [2-Amino-phenanthrene-9,10-dione]: 5.9 µM; for `O=C(CC1C(=O)NCCN1C(=S)Nc1ccccc1)Nc1ccc2c(c1)OCCO2` (configuration not stated) [2-[1-(anilinocarbonothioyl)-3-oxo-2-piperazinyl]-N-(2,3-dihydro-1,4-benzodioxin-6-yl)acetamide]: greater than 50 µM.
The same measure for `O=C(CN1C(=O)c2ccccc2C1=O)N1CCN(c2nnc(-c3ccccc3)c3ccccc23)CC1` [2-[2-keto-2-[4-(4-phenylphthalazin-1-yl)piperazino]ethyl]isoindoline-1,3-quinone]: greater than 50 µM; for `CCC(Sc1nc2nnc(C)c-2c(N)n1-c1cccc(Cl)c1)C(=O)NCCOC` (configuration not stated) [2-[4-amino-5-(3-chlorophenyl)-3-methylpyrazolo[3,4-d]pyrimidin-6-yl]sulfanyl-N-(2-methoxyethyl)butanamide]: greater than 50 µM.
For `O=NCc1cc(Br)ccc1OCC(=O)O` [2-[4-bromanyl-2-(hydroxyiminomethyl)phenoxy]ethanoic acid] the value was greater than 50 µM; for `CCN1C(=O)/C(=C/c2nc3ccccc3c(=O)n2-c2ccccc2)c2ccccc21` [2-[(1-ethyl-2-oxo-1,2-dihydro-3H-indol-3-ylidene)methyl]-3-phenyl-4(3H)-quinazolinone], greater than 50 µM.
In turn, `COc1ccc(S(=O)(=O)N(C)CC(=O)Nc2ccccc2C(F)(F)F)cc1` [2-[(4-methoxyphenyl)sulfonyl-methyl-amino]-N-[2-(trifluoromethyl)phenyl]acetamide] returned a half-maximal inhibitory concentration (IC50) greater than 50 µM.
The same measure for `CCn1ncc(CN2CCN(C(=O)Nc3ccccc3C(=O)OC)CC2)c1C` [2-[[4-[(1-ethyl-5-methyl-pyrazol-4-yl)methyl]piperazine-1-carbonyl]amino]benzoic acid methyl ester]: greater than 50 µM; for `CCn1c(SCC(N)=O)nnc1-c1ccc(S(=O)(=O)N2CCN(C)CC2)cc1` [2-[[4-ethyl-5-[4-(4-methylpiperazin-1-yl)sulfonylphenyl]-1,2,4-triazol-3-yl]sulfanyl]acetamide]: greater than 50 µM; for `COC(=O)CNC(=O)C12CC3(C)CC(C)(CC(C)(C3)C1)C2` [2-[[oxo-(3,5,7-trimethyl-1-adamantyl)methyl]amino]acetic acid methyl ester]: greater than 50 µM.
The same measure for `Cc1oc2c(c1C(=O)c1ccccc1)C(=O)C(=O)c1ccccc1-2` [2-methyl-3-(phenylcarbonyl)benzo[g][1]benzofuran-4,5-dione]: 43.6 µM; for `COc1cc(OC)cc(C(=O)NCCCN2CCOCC2)c1` [3,5-Dimethoxy-N-(3-morpholin-4-yl-propyl)-benzamide]: greater than 50 µM; for `Cc1cccc(-n2c(CCn3nc(C)c([N+](=O)[O-])c3C)n[nH]c2=S)c1` [3-(2-{4-nitro-3,5-dimethyl-1H-pyrazol-1-yl}ethyl)-4-(3-methylphenyl)-5-sulfanyl-4H-1,2,4-triazole]: greater than 50 µM.
As for `Cc1cc(C)n(-c2nnc3n2N=C(c2ccccc2)CS3)n1` [3-(3,5-dimethyl-1-pyrazolyl)-6-phenyl-7H-[1,2,4]triazolo[3,4-b][1,3,4]thiadiazine], the IC50 was greater than 50 µM.
The same measure for `Cn1nc(-c2ccc(Cl)cc2)nc2c(=O)n(C)c(=O)nc1-2` [3-(4-Chloro-phenyl)-1,6-dimethyl-1H-pyrimido[5,4-e][1,2,4]triazine-5,7-dione]: 2.46 µM.
The same measure for `COc1ccc(Cn2c(=O)sc3ccccc32)cc1` [3-(4-Methoxy-benzyl)-3H-benzothiazol-2-one]: greater than 50 µM; for `COC(=O)CCc1c(C)[nH]c(=S)[nH]c1=O` [3-(6-methyl-4-oxo-2-sulfanylidene-1H-pyrimidin-5-yl)propanoic acid methyl ester]: greater than 50 µM; for `CC(C)Sc1nc(N2CCOCC2)c2c(c1C#N)CC(C)(C)N(C)C2` [3-(isopropylthio)-6,6,7-trimethyl-1-morpholino-5,8-dihydro-2,7-naphthyridine-4-carbonitrile]: greater than 50 µM.
On to `O=C1CCC(C(=O)O)(c2ccccc2)C1` (configuration not stated) [3-Oxo-1-phenyl-cyclopentanecarboxylic acid], for which the IC50 is greater than 50 µM.

By IC50 is commonly meant the concentration that inhibits the measured activity by half. Read a high IC50 as a need for much substance.
